Target: T1, CYP2B6 (Homo sapiens, UniProt P20813)
T1 sequence (P20813 1-491): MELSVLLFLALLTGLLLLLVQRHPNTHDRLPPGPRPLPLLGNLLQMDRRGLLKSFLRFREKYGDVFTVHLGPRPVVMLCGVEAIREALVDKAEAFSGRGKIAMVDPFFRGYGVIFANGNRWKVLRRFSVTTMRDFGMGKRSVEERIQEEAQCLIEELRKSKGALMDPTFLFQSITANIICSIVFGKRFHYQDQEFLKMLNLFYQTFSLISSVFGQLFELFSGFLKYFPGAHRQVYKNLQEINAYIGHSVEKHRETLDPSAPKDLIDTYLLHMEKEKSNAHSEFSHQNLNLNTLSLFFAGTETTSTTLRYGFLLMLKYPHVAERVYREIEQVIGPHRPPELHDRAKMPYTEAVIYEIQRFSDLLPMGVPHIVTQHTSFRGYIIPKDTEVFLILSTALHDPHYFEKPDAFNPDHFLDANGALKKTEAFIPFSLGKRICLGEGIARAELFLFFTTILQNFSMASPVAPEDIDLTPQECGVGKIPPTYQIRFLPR
Assay: Supersome CYP2B6 kinetic incubations
Assay type: in vitro ADME
Set-up: purchased Corning (Amsterdam, The Netherlands); host or cells: baculovirus-transfected insect cells
Details: for Scaled Vmax(app): CYP2B6 scaled to whole liver by Eq. 3; for Vmax (app) / Km: Supersome CYP2B6; for Km: human, recombinant CYP2B6 Supersomes, pH 7.4, Km(app)
Experimental: The final incubations were carried out in 50 mM Tris–HCl (pH 7.4) containing 5 mM MgCl2, 1 mM EDTA (as an A-esterase PON1 inhibitor) (Bizoń and Milnerowicz [2018]), 50 µM iso-OMPA (as a B-esterases inhibitor) (Lane et al. [2006]), Supersome™ isoform (at final concentration of 0.005 nmol CYP/ml for 1A2, 0.001 nmol CYP/ml for 2B6, 0.01 nmol CYP/ml for 2C19, and 0.01 nmol CYP/ml for 3A4) and CPF at different final concentrations (0.05, 0.1, 0.25, 0.5, 1, 5 and 10 µM for 1A2, 0.05, 0.1, 0.25, 0.5, 1, 5 10 and 25 µM for 2B6, 1, 2.5, 5, 10, 25 and 50 µM for 2C19, and 0.5, 1, 2.5, 5, 10, 25 and 50 µM for 3A4), which were added from 100 times concentrated stock solutions in ACN. After 1 min preincubation in a 37 °C water bath, 5 µl NADPH (final concentration 1 mM) was added to the incubation system. Control incubations were performed by replacing NADPH with the same amount of Tris–HCl (pH 7.4). The total volume of the incubation mixtures was 200 µl. The incubations lasted for 2 min at 37 °C and were terminated by addition of 50 µl ice cold ACN and subsquently put on ice. After that, samples were centrifuged at 16,000 g (4 ℃) for 5 min and supernatants of samples were separated into two equal portions for Ultra-Performance Liquid Chromatography-Photodiode Array (UPLC-PDA) and Liquid Chromatography Mass Spectrometry (LC–MS/MS) analysis, respectively.
To normalize for differences in intrinsic CYP activity between Supersome™ and pooled HLMs and enable scaling of the activities to the in vivo situation, CYP-specific ISEF values need to be established. […] The incubation method was similar as used for the CPF kinetic incubation assay described above, except that certain incubation conditions were replaced by the conditions listed in Table 1. The samples obtained were analyzed by UPLC-PDA for acetaminophen, 4-hydroxymephenytoin, and 6β-hydroxytestosterone formation catalyzed by 1A2, 2C19 and 3A4, or LC–MS/MS for (±)-hydroxybupropion formation catalyzed by 2B6.
As mentioned before, the in vitro apparent kinetic parameters (Vmax and Km) for pathway 1 and pathway 2 in the HLM-based approach, and pathway 3 in both approaches were all obtained directly from reported studies using pooled HLMs (Buratti et al. [2003]; Sams et al. [2004]; Zhao et al. [2019]). Therefore, no extra calculations were required to define these parameters. The kinetic parameters for the ISEF calculation, pathway 1 and 2 in the Supersome™-based approach, and pathway 4 in both approaches (25 individuals) were all obtained by fitting the experimental data to the Michaelis–Menten model using GraphPad (GraphPad Prism 5.0 software, San Diego, CA, USA). It should be noted that the kinetic parameters for pathway 4 used in the two approaches were calculated as mean of the kinetic parameters (Vmax and Km) obtained using 25 individual HP samples (with correction for total protein concentration of each plasma sample).
The in vivo Kmi values were assumed to be equal to the apparent Kmi(app) values (µM) obtained in the in vitro incubations, while the in vivo Vmaxi for each CYP isoform was derived from their corresponding apparent CYP isoform Vmaxi(app) (pmol/min/pmolCYP) using Eq. 3:3 Vmaxi=Vmaxiapp×CYPiabundance×ISEF×60×MPL×1000×VL/1,000,000,

CCOP(=S)(OCC)Oc1nc(Cl)c(Cl)cc1Cl [CPF, Chlorpyrifos]
Scaled Vmax(app) (Pathway 1 (CPF to CPO)): 203.94 µmol/h
Vmax (app) (Pathway 1 (CPF to CPO)): 7.76 pmol/min/pmolCYP
Scaled Vmax(app) (Pathway 2 (CPF to TCPy)): 144.28 µmol/h
Vmax (app) (Pathway 2 (CPF to TCPy)): 5.49 pmol/min/pmolCYP
Km (Pathway 1 (bioactivation of CPF to CPO)): 0.14 µM
Km (Pathway 2 (detoxification of CPF to TCPy)): 1.28 µM

— publication PMC9013686, “Inter-individual variation in chlorpyrifos toxicokinetics characterized by physiologically based kinetic (PBK) and Monte Carlo simulation comparing human liver microsome and Supersome™ cytochromes P450 (CYP)-specific kinetic data as model input” (Archives of Toxicology, 2022)
